Measurements as given in PubChem BioAssay (NCI).
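All cell lines were grown in 96-well plates and treated with compound for 48 hours. GI50 = concentration required for 50% inhibition of growth. Definition used: TGI = concentration required for complete inhibition of growth.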

Columns and labels:
Experiment in all cases: inhibition of tumour cell growth, NCI panel, 48 h
DLD-1 colon = test system: DLD-1 colon
LXFL 529 NSCLC = test system: LXFL 529 NSCLC
KM20L2 colon = test system: KM20L2 colon
SNB-78 CNS = test system: SNB-78 CNS
HOP-18 NSCLC = test system: HOP-18 NSCLC
DMS 273 small cell lung = test system: DMS 273 small cell lung
DMS 114 small cell lung = test system: DMS 114 small cell lung
RXF-631 renal = test system: RXF-631 renal

Row | Structure (SMILES) | GI50 (DLD-1 colon) [µM] | TGI (DLD-1 colon) [µM] | GI50 (LXFL 529 NSCLC) [µM] | TGI (LXFL 529 NSCLC) [µM] | GI50 (KM20L2 colon) [µM] | TGI (KM20L2 colon) [µM] | GI50 (SNB-78 CNS) [µM] | TGI (SNB-78 CNS) [µM] | TGI (HOP-18 NSCLC) [µM] | TGI (DMS 273 small cell lung) [µM] | TGI (DMS 114 small cell lung) [µM] | TGI (RXF-631 renal) [µM]
1 | CCCC(=O)[O-].CCCC(=O)[O-].NCCN.NCCN.[Co+3].[O-][Cl+3]([O-])([O-])[O-] | > 100 | > 100 | > 100 | > 100 | > 100 | > 100 | > 100 | > 100 | – | – | – | –
2 | C[n+]1c2ccccc2c(NC(CCCN=C(N)N)C(=O)O)c2ccccc21 (configuration not stated) | – | > 100 | – | > 100 | – | > 100 | – | > 100 | > 100 | > 100 | > 100 | –
3 | Nc1c(S(=O)(=O)c2ccccc2)c2nc3ccccc3nc2n2c1nc1ccccc12 | – | > 100 | – | > 100 | – | > 100 | – | > 62.1 | – | > 71.9 | > 100 | 47.5
4 | Cc1ccc(C(=O)NCc2ccccc2)cc1N=NN(C)C | – | > 100 | – | > 100 | – | > 100 | – | > 100 | – | > 100 | – | –
5 | CC(=O)O[C@@]12CO[C@@H]1CC(O)[C@@]1(C)C(=O)[C@H](O)C3=C(C)C(O)C[C@@](O)(C(OC(=O)c4ccccc4)C12)C3(C)C (some centres not stated) | – | – | – | – | – | 3.31 | – | > 100 | – | – | – | –
6 | CCOC(=O)CCC(NC(=O)c1ccc(NCc2ccc3nc(-c4ccccc4)c(Cl)nc3c2)cc1)C(=O)OCC (configuration not stated) | – | > 100 | – | > 100 | – | > 100 | – | > 100 | – | > 100 | > 100 | 70.3
7 | Cc1ccc(NC(=O)C(=O)C2C(=O)NC(=O)NC2=O)cc1C | – | > 100 | – | > 100 | – | > 100 | – | > 100 | > 100 | > 100 | – | –
8 | Cc1c2ccc3ccccc3c2c[n+]2ccccc12 | – | > 100 | – | 24.2 | – | > 64.1 | – | > 100 | – | > 50.2 | 20.7 | –
9 | CC(=O)O[C@]12CCCCCC1C1(O)C(O)CCCCC12 (some centres not stated) | – | – | – | > 100 | – | > 100 | – | > 100 | – | > 100 | > 100 | –
10 | COc1ccc(/C=N/N=C(\N)NO)c(OC)c1C | – | > 100 | – | > 100 | – | – | – | > 100 | 60.6 | – | 71.9 | –
11 | CN(C)CCCNc1ccc2ncn3c4ccc(O)cc4c(=O)c1c23 | – | 16.5 | – | 17.7 | – | 14.4 | – | 26.6 | 27.4 | 12.1 | 16.7 | 12.2
12 | CCCCCCCCCCCC(=O)OC[C@@H](C[As](=O)(O)O)OC(=O)CCCCCCCCCCC | – | 33.3 | – | 17.7 | – | 26.4 | – | – | 27.7 | 12.3 | 4.54 | –
